Source: patent publication US9175282B2, “Cellobiose 2-epimerase, its preparation and uses” (HAYASHIBARA CO., LTD., priority 2009, dated 2015)
Read-outs that look alike come from different tables or passages of the source. Values belong to the compound of their own block, whether it stands above or below them.

Legend:
[1] = test system: recombinant cellobiose 2-epimerase; assay: Substrate specificity of cellobiose 2-epimerase by TLC; type: biochemical, Caldicellulosiruptor saccharolyticus ATCC43494; parameters: key to Action: −: No product is detected; ±: Some products are slightly detected; +: Some products are detected; ++: Some products are clearly detected; conditions: for Action: 2% (w/w) substrate, MOPS buffer pH 8.0, 500 units/g-substrate, 60° C., 24 hours, product spot on TLC; for Action of the enzyme on the saccharide: summary of Table 3
Protocol: Substrate specificity of the enzyme was investigated by allowing the purified preparation of the recombinant cellobiose 2-epimerase, obtained by the method of Experiment 4-4, to act on various saccharides. Substrate solutions were prepared by dissolving D-glucose, D-xylose, D-allose, D-ribose, D-galactose, D-fructose, D-mannose, D-psicose, D-tagatose, L-sorbose, L-rhamnose, L-ribose, trehalose, kojibiose, nigerose, isomaltose, neotrehalose, gentiobiose, lactose, sucrose, maltulose, palatinose, maltose, maltotriose, maltotetraose, maltopentaose, maltohexaose, maltoheptaose, cellobiose, cellotriose, cellotetraose, selaginose, isomaltosyl-glucoside, isomaltotriose, panose, isopanose, erlose, maltitol, maltotriitol, methyl-α-glucoside, methyl-β-glucoside, D-glucosamine, D-galactosamine, D-glucuronic acid, N-acetyl-glucosamine, or N-acetyl-galactosamine into MOPS buffer (pH 8.0) to give a final concentration of 2% (w/w) of saccharide and 40 mM buffer.
Then, each of the resulting substrate solutions was further admixed with 500 units/g-substrate, on a dry solid basis, of the purified preparation of recombinant cellobiose 2-epimerase, obtained by the method in Experiment 4-4, and followed by the enzyme reaction at 60° C. for 24 hours. After stopping the reaction by heating the reaction mixture at 100° C. for 10 minutes, each reaction mixture was subjected to TLC analysis under the conditions in Experiment 1-2 to examine the saccharides in each mixture before and after the reaction. The substrate specificity of the enzyme was judged by investigating whether the spot of the reaction product except for the substrate is detected in the TLC chromatogram or not, and the degree of the strength of the visualized spot.

[2] = test system: recombinant cellobiose 2-epimerase; assay: Isomerized saccharides formed from monosaccharides (HPLC); type: biochemical, Caldicellulosiruptor saccharolyticus ATCC43494
Protocol: Reaction products formed from D-glucose, D-galactose, and D-mannose by the action of the cellobiose 2-epimerase of the present invention were investigated. D-Glucose, D-galactose, or D-mannose was dissolved into 50 mM acetate buffer (pH 6.0) to give a final concentration of 20% (w/v) to make into a substrate solution. To 0.1 ml of the substrate solution, 130 units/g-solid substrate for D-glucose and D-mannose (0.1 ml as the enzyme solution), or 500 units/g-solid substrate for D-galactose (0.1 ml as the enzyme solution), of the purified preparation of the recombinant cellobiose 2-epimerase, obtained by the method in Experiment 4-4, was admixed; and followed the enzyme reaction at 60° C. for 48 hours.
After the completion of the reaction, reaction mixture was heated at 100° C. for 10 minutes to stop the reaction. Each reaction mixture was subjected to HPLC analysis for determining the product. HPLC analysis of the products in the reaction mixture was carried out under the following conditions for separating monosaccharides.

[3] = test system: recombinant cellobiose 2-epimerase; assay: Formation of isomerized saccharides from various saccharides, effect of the amount of enzyme; type: biochemical, Caldicellulosiruptor saccharolyticus ATCC43494; conditions: for Content of isomerized saccharide in the reaction mixture (%): Epilactose / Content of isomerized saccharide in the reaction mixture (%): Lactulose: GC analysis
Protocol: Each of them was dissolved into 20 mM acetate buffer (pH 6.0), admixed with the purified preparation of the recombinant cellobiose 2-epimerase, obtained by the method in Experiment 4-4, and followed the enzyme reaction under the conditions of 10% (w/v) substrate concentration, 60° C. for 72 hours. The amount of enzyme was set to 130 or 500 units/g-substrate when monosaccharide was used as the substrate, and to 1 or 130 units/g-substrate when disaccharide or trisaccharide was used as the substrate. Each reaction mixture was heated at 100° C. for 10 minutes to stop the reaction and subjected to HPLC analysis to determine the contents of isomerized saccharide, on a dry solid basis. The contents of epilactose and lactulose in the reaction mixture obtained using lactose as substrate were determined by GC analysis described in Experiment 1-2.

[4] = test system: cellobiose 2-epimerase; assay: Effect of metal ions on the epimerase activity; type: biochemical, Caldicellusiruptor saccharolyticus ATCC43494; conditions: for Inhibition of the epimerase activity by metal ion: 1 mM
[5] = ingested in rat; cited from earlier work
[6] = 130 units/g-substrate, pH 6.0, 60° C., 48 hours
[7] = 130 units/g-substrate, 10% (w/v) substrate, pH 6.0, 60° C., 72 hours
[8] = 500 units/g-substrate, 10% (w/v) substrate, pH 6.0, 60° C., 72 hours
[9] = 500 units/g-substrate, pH 6.0, 60° C., 48 hours
[10] = 1 unit/g-substrate, 10% (w/v) substrate, pH 6.0, 60° C., 72 hours

Relative activity (%) ([4]; metal salt 1 mM, None = 100): 106%
Compound: [Cl-].[Cl-].[Mg+2] [MgCl2]

Inhibition of the epimerase activity by metal ion [4]: almost completely inhibited
Relative activity (%) ([4]; metal salt 1 mM, None = 100): 1%
Compound: [Cl-].[Cl-].[Zn+2] [ZnCl2]

Relative activity (%) ([4]; metal salt 1 mM, None = 100): 104%
Compound: [Cl-].[Cl-].[Sr+2] [SrCl2]

Relative activity (%) ([4]; metal salt 1 mM, None = 100): 35%
Compound: [Cl][Fe][Cl] [FeCl2]

Action [1]: +
Action of the enzyme on the saccharide [1]: acted on
Content (%, w/w) of product D-Fructose [2, 6]: 5.1 %, w/w
Content (%, w/w) of product D-Glucose [2, 6]: 41.8 %, w/w
Content of isomerized saccharide in the reaction mixture (%): D-Fructose [3, 7]: 6.6%
Content of isomerized saccharide in the reaction mixture (%): D-Glucose [3, 7]: 45.8%
Compound: O=C[C@@H](O)[C@@H](O)[C@H](O)[C@H](O)CO [D-Mannose]

Relative activity (%) ([4]; metal salt 1 mM, None = 100): 107%
Compound: [Ca+2].[Cl-].[Cl-] [CaCl2]

Action [1]: ++
Action of the enzyme on the saccharide [1]: relatively strong specificity
Content of isomerized saccharide in the reaction mixture (%): Epilactose [3, 10]: 32.0%
Content of isomerized saccharide in the reaction mixture (%): Lactulose [3, 10]: 0.0%
Content of isomerized saccharide in the reaction mixture (%): Epilactose [3, 7]: 12.8%
Content of isomerized saccharide in the reaction mixture (%): Lactulose [3, 7]: 57.5%
Action of the enzyme on the substrate ([3]; summary of Table 5): relatively specifically acted
Compound: OC[C@H]1O[C@@H](O[C@H]2[C@H](O)[C@@H](O)C(O)O[C@@H]2CO)[C@H](O)[C@@H](O)[C@H]1O (some centres unmarked) [Lactose]

The next lines start with the compound.

Compound: O=C[C@H](O)[C@@H](O)[C@H](O)[C@H](O)CO [D-Glucose]
Action [1]: +
Action of the enzyme on the saccharide [1]: acted on
Content (%, w/w) of product D-Fructose [2, 6]: 3.8 %, w/w
Content (%, w/w) of product D-Mannose [2, 6]: 20.6 %, w/w
Content of isomerized saccharide in the reaction mixture (%): D-Fructose [3, 7]: 5.0%
Content of isomerized saccharide in the reaction mixture (%): D-Mannose [3, 7]: 20.9%
Content of isomerized saccharide in the reaction mixture (%): D-Fructose [3, 8]: 9.2%
Content of isomerized saccharide in the reaction mixture (%): D-Mannose [3, 8]: 23.3%

Compound: [Cl][Fe]([Cl])[Cl] [FeCl3]
Relative activity (%) ([4]; metal salt 1 mM, None = 100): 33%

Compound: NC(CO)(CO)CO [Tris]
Relative activity (%) ([4]; metal salt 1 mM, None = 100): 93%

Compound: O=C(O)CN(CCN(CC(=O)O)CC(=O)O)CC(=O)O [EDTA]
Relative activity (%) ([4]; metal salt 1 mM, None = 100): 99%

Compound: [Ba+2].[Cl-].[Cl-] [BaCl2]
Relative activity (%) ([4]; metal salt 1 mM, None = 100): 108%

Compound: [Cl][Pb][Cl] [PbCl2]
Inhibition of the epimerase activity by metal ion [4]: inhibited
Relative activity (%) ([4]; metal salt 1 mM, None = 100): 36%

Compound: [Cl][Hg][Cl] [HgCl2]
Inhibition of the epimerase activity by metal ion [4]: almost completely inhibited
Relative activity (%) ([4]; metal salt 1 mM, None = 100): 1%

Compound: O=C[C@H](O)[C@@H](O)[C@@H](O)[C@H](O)CO [D-Galactose]
Action [1]: ±
Action of the enzyme on the saccharide [1]: slightly acted on
Action of the enzyme compared with D-glucose and D-mannose [2]: relatively weak
Content (%, w/w) of product D-Tagatose [2, 9]: 8.4 %, w/w
Content (%, w/w) of product D-Talose [2, 9]: 10.3 %, w/w
Content of isomerized saccharide in the reaction mixture (%): D-Tagatose [3, 8]: 9.2%
Content of isomerized saccharide in the reaction mixture (%): D-Talose [3, 8]: 11.0%

Compound: [Cl][Cu][Cl] [CuCl2]
Inhibition of the epimerase activity by metal ion [4]: almost completely inhibited
Relative activity (%) ([4]; metal salt 1 mM, None = 100): 1%

Compound: [Cl][Mn][Cl] [MnCl2]
Relative activity (%) ([4]; metal salt 1 mM, None = 100): 104%

Compound: [Cl][Al]([Cl])[Cl] [AlCl3]
Inhibition of the epimerase activity by metal ion [4]: inhibited
Relative activity (%) ([4]; metal salt 1 mM, None = 100): 45%

Compound: OC[C@H]1O[C@@H](O[C@H]2[C@H](O)[C@H](O)C(O)O[C@@H]2CO)[C@H](O)[C@@H](O)[C@H]1O (some centres unmarked) [epilactose]
Amount of short-chain fatty acid in the intestine [5]: increasing the amount of short-chain fatty acid in the intestine
Calcium absorption in the small intestine [5]: promoting calcium absorption in the small intestine
Plasma cholesterol level [5]: lowering the plasma cholesterol level

Compound: O=C(CO)[C@@H](O)[C@@H](O)[C@H](O)CO [D-Tagatose]
Action [1]: ±
Action of the enzyme on the saccharide [1]: slightly acted on
Content of isomerized saccharide in the reaction mixture (%): D-Galactose [3, 8]: 4.7%
Content of isomerized saccharide in the reaction mixture (%): D-Talose [3, 8]: 5.2%

Compound: [Cl-].[Cl-].[Co+2] [CoCl2]
Relative activity (%) [4]: 101%

Compound: [Cl][Ni][Cl] [NiCl2]
Relative activity (%) ([4]; metal salt 1 mM, None = 100): 103%
